From PubChem BioAssay (NCI)
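Five compound concentrations were applied to cells in 96-well plates for 48 hours; endpoints were derived by simple linear interpolation of the resulting dose-response curve. TGI marks complete inhibition of growth.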

What was measured:
Test in all cases: NCI tumour cell line growth inhibition, 48 h
KM12 colon = system: KM12 colon
CCRF-CEM leukemia = system: CCRF-CEM leukemia
A498 renal = system: A498 renal
RXF 393 renal = system: RXF 393 renal
M14 melanoma = system: M14 melanoma
OVCAR-8 ovarian = system: OVCAR-8 ovarian
SNB-75 CNS = system: SNB-75 CNS
CAKI-1 renal = system: CAKI-1 renal
OVCAR-5 ovarian = system: OVCAR-5 ovarian
SR leukemia = system: SR leukemia
COLO 205 colon = system: COLO 205 colon
EKVX NSCLC = system: EKVX NSCLC
MDA-MB-231 breast = system: MDA-MB-231 breast
BT-549 breast = system: BT-549 breast

Row | SMILES | TGI (KM12 colon) [µM] | TGI (CCRF-CEM leukemia) [µM] | TGI (A498 renal) [µM] | TGI (RXF 393 renal) [µM] | TGI (M14 melanoma) [µM] | TGI (OVCAR-8 ovarian) [µM] | TGI (SNB-75 CNS) [µM] | TGI (CAKI-1 renal) [µM] | TGI (OVCAR-5 ovarian) [µM] | TGI (SR leukemia) [µM] | TGI (COLO 205 colon) [µM] | TGI (EKVX NSCLC) [µM] | TGI (MDA-MB-231 breast) [µM] | TGI (BT-549 breast) [µM]
1 | O=C(NN1C(=O)C(Cl)C1c1cccc(Cl)c1)c1ccccc1O (stereo not drawn) | > 100 | > 100 | > 100 | > 100 | > 100 | > 100 | > 100 | – | – | – | – | – | – | –
2 | O=C(CSc1nc2ccc(I)cc2c(=O)n1Cc1ccccc1)NN1C(=O)CSC1c1ccccc1 (stereo not drawn) | 54.9 | > 100 | – | 57.4 | 84.4 | > 100 | > 100 | 10.9 | > 100 | > 100 | 34.6 | 86.2 | 65.6 | –
3 | Cc1ccc(S(=O)(=O)NC(=O)NCC(N)=O)cc1 | > 100 | > 100 | – | > 100 | > 100 | > 100 | > 100 | – | > 100 | – | > 100 | – | > 100 | > 100
4 | CC1(C)N([O-])[N+](=O)C1(Br)c1ccccc1 (stereo not drawn) | > 100 | > 100 | – | > 100 | > 100 | > 100 | > 100 | > 100 | > 100 | > 100 | > 100 | > 100 | > 100 | –
5 | COc1ccc2oc(=O)c(-c3csc(-c4ccccc4)n3)cc2c1 | > 100 | > 100 | – | 59.3 | > 100 | – | 71.7 | > 100 | > 100 | > 100 | > 100 | > 100 | > 100 | 50.2
6 | Cn1nc(S(N)(=O)=O)s/c1=N/S(=O)(=O)c1ccc(N)cc1 | > 100 | – | > 100 | > 100 | > 100 | > 100 | > 100 | > 100 | > 100 | – | > 100 | > 100 | > 100 | > 100
7 | CCOC(=O)CON=c1c2ccccc2ccc2ccccc12 | > 100 | > 100 | – | > 100 | > 100 | > 100 | > 100 | > 100 | > 100 | > 100 | > 100 | > 100 | > 100 | > 100
8 | O=C1COc2cc3c(cc2N1)SCCC(=O)N3 | > 100 | > 100 | > 100 | – | > 100 | > 100 | > 100 | > 100 | – | > 100 | > 100 | > 100 | – | –
9 | Cc1cc(C)nc(NS(=O)(=O)c2ccc(Nc3nnc(/C=C/c4c(O)ccc5ccccc45)c(=O)n3N)cc2)n1 | – | > 100 | – | 55.3 | 58.5 | 87.2 | 55.9 | 59.8 | 75.4 | 55.6 | – | 78.5 | – | 62.5
